Measured values published in US20100009348A1, “Methods and Constructs for Analyzing Biological Activities of Biological Specimens and Determining States of Organism” (ATTAGENE, INC., priority 2005, published 2010).

Experiment: STZ-induced type I diabetes in rats, blood glucose concentration
Assay type: in vivo, rat
Conditions: Sprague-Dawley male rats, single intra-peritoneal injection of 70 mg/kg STZ, seven days following the injection, tail vein blood
From the text: Experimental type I diabetes mellitus was induced in rats by using Streptozotocin (STZ), a N-nitroso derivative of D-glucosamine. Streptozotocin causes rapid necrosis in pancreatic β-cells of islets of Langerhans (Okamoto, 1985, Bioessays 2:15-21). STZ has been widely used to provoke insulin-dependent diabetes conditions in various laboratory animals, and animals treated with STZ are recognized in the art as a model of diabetes mellitus (Like and Rossini, 1976, Science 193:415-417).
The design of the approach to compare sera from diabetic and healthy rats is illustrated in FIG. 4. Sprague-Dawley male rats aged 10-12 weeks were randomly allocated in two groups. Rats from one group received a single intra-peritonial injection of 70 mg/kg STZ (Sigma-Aldrich, St. Louis, Mo., USA) dissolved in freshly prepared 50 mM citrate buffer (pH, 4.0). Animals in control group received an equivalent volume of the citrate buffer. Seven days following the injection, blood samples were derived from a tail vein of the control and STZ treated animals. Development of the diabetic conditions in STZ treated animals was confirmed by blood glucose concentration measurements.

With `CN(N=O)C(=O)N[C@H]1C(O)O[C@H](CO)[C@@H](O)[C@@H]1O` (mixture of isomers) [STZ, Streptozotocin] the “blood glucose levels (hyperglycemia)” value was “at least 300 mg/dl”.
